Source: patent US7374890B2, “Methods for identifying compounds that modulate ΔTRα2 activity” (University of Massachusetts, priority 2000, dated 2008)

Columns and labels:
[1] = test system: cerebellar granule neurons; test: release of FM1-43-loaded synaptic vesicles from cerebellar granule neurons under continuous stimulus; assay type: cell-based, rat
Method: Granule neurons were grown for 7 days and rendered hormone free by growth in serum-free medium as detailed above. Coverslips were then placed in a perfusion chamber, mounted on the stage of a laser scanning confocal microscope and perfused at 1 ml/min at 25° C. with perfusion buffer (119 mM NaCl, 2.5 mM KCl, 2 mM CaCl2, 2 mM MgCl2, 25 mM HEPES (pH 7.4), 30 mM glucose, and […] AP-5). The effects of different hormones on synaptic vesicle trafficking were then determined. […] Depolarizing KCl was then removed from the perfusion buffer and the cells were exposed to FM1-43 for an additional 30 seconds to insure complete loading of recycling synaptic vesicles. Loaded cells were then washed free of dye and the cells were perfused for ten minutes at rest.
Images of a single field of neuronal fibers were then taken immediately before adding a second depolarizing solution (perfusion buffer containing 50 mM KCl) and at one and two minutes after beginning the continuous stimulation by 50 mM KCl. Thirty to forty-five individual FM1-43 labeled nerve terminals were identified in the baseline images (taken prior to depolarization) and the change in fluorescence (DF) for each nerve terminal determined at the one and two minute time points. FIGS. 11A and 11B show the results of analysis of the hormone specificity of synaptic vesicle trafficking (FIG. 11A) and the influence of individual myo5a mutants (FIG. 11B) on synaptic vesicle transport in granule neurons.
To evaluate the role of myo5a in synaptic vesicle transport, three different myo5a constructs were introduced into the neurons by replication-deficient adenoviral vectors (Δmyo5a^tail(MyoV^tail), Δmyo5a^c-term(MyoV^1830)and ΔMyo5a^CC(MyoV^cc) see FIG. 5) as described above. […] Neurons were infected with purified Ad5-constructs (MOI=10) 48 hours prior to the synaptic vesicle trafficking study, and allowed to recover in hormone (T4) supplemented medium. […] This modest influence of the VBD mutant on synaptic vesicle retention is likely to be due to the loss of the kinesin-binding domain that limits its delivery to nerve terminals.

[2] = test system: binding of p29^GFP vesicles to F-actin; test: modified in vitro actin binding assay with p29^GFP-labeled vesicles; assay type: biochemical, rat; details: for competition with native myosin V for T4-dependent binding of p29 to F-actin: ~2-3 pmol polypeptide/50 μl mixture, 10 nM T4
Method: To define the specific region(s) of the myosin V tail that interact with the p29 vesicle, a series of deletion mutations were created based on the dominant negative effect of exogenous myosin V tail on p29 vesicle binding. Competition analysis of the myosin V deletion mutations on T4-dependent binding of p29 vesicles to F-actin was performed using a modified in vitro assay in which a GFP-tagged p29 fusion protein (p29^GFP) replaced the radioaffinity labeled native p29 (Farwell et al., 1990, J. Biol. Chem. 265:18546-18553; Farwell et al., 1993, J. Biol. Chem. 268:5055-5062). This allowed direct evaluation of the binding of fluorescent vesicles to F-actin without affinity radiolabeling of the p29 and subsequent SDS-PAGE analysis.
Specific fluorescence at 510 nm (excitation, 488 nm) was then determined in the resuspended Triton-insoluble pellets.
To determine if the myosin V tail could be captured by the p29^GFP vesicle, an exogenous myosin V^tail was introduced into astrocytes constitutively expressing p29^GFP by infection with Ad5-ΔMyo V^tail virus particles and examined the effects of T4 on the binding of the myosin V^tail to immunopurified p29^GFP vesicles. Astrocytes expressing p29^GFP were grown in serum-free media and treated for 16 hours with 1 mM bt2cAMP and 100 nM hydrocortisone. A separate pool of astrocytes was treated in serum-free media supplemented with 10 μM retinoic acid. Cells were collected by scraping, and lysed by two freeze-thaw cycles. […] Triton-soluble (vesicle) and Triton-insoluble (F-actin) fractions were separated by microflige centrifugation. Triton pellets were resuspended in 300 μl of PBS and fluorescence at 510 nm (excitation 488 nm) determined and relative fluorescence was reported as arbitrary units. Cells were treated with 10 nM T4 for twenty minutes and a Triton-soluble supernatant was prepared. Vesicles containing the p29^GFP were immunoprecipitated by anti-GFP IgG (2 μg/ml) and protein in the immunoprecipitates were resolved by SDS-PAGE. Immunoblot analysis of vesicle-associated myosin V was performed using the anti-myosin V antibody directed against the C-terminus.
The quantity of each mutant protein synthesized was determined by [^35 S]-methionine incorporation. Astrocytes expressing p29^GFP were grown in serum-free media and treated for 16 hours with […] bt2cAMP and 100 nM hydrocortisone. p29^GFP V-lysate and F-lysate were prepared as described herein. 100 μg aliquots of p29^GFP V-lysate and F-lysate were pre-incubated, in triplicate, for 20 minutes at 37° C. in the presence of individual Δ myosin V mutant proteins (˜2-3 pmol polypeptide/50 μl mixture) were added to the actin-binding assay and pre-incubated for 20 minutes at 37° C. T4 (10 nM) was then added, the mixtures incubated for 20 minutes at 37° C., and F-actin bound, fluorescent p29^GFP vesicles were then isolated in the Triton-insoluble pellet.
V lysates prepared from astrocytes over-expressing p29^GFP were pre-incubated for 30 minutes at room temperature with antisera raised against ΔTRα2, ΔTRα1, the C-terminus of MyoV (encoded by MyoV^tail, FIG. 5), the coiled-coil region of MyoV (encoded by MyoV^coil-coil, FIG. 5) and GFP (green fluorescent protein). T4 (10 nM) and actin fiber-containing F-lysate was then added, the mixtures incubated at 37° C. for 20 minutes, and the Triton-insoluble fraction isolated by centrifugation.

[3] = test system: cerebellar granule neurons; test: FM1-43 synaptic vesicle recycling in cultured cerebellar granule neurons, spontaneous activity; assay type: cell-based, rat
Method: All of the major components of hormone-induced vesicle trafficking in astrocytes (actin fibers, myosin V (also referred to as myosin 5a and myo 5a), and recycling vesicles) are also present in nerve terminals. Therefore, the effects of thyroid hormone on synaptic vesicle recycling in the presynaptic nerve terminal were examined using myo5a-dependent synaptic vesicle (SV) recycling in cultured cerebellar granule neurons. In these experiments, rat granule neurons were grown on laminin-coated coverslips in the absence or presence of hormone and synaptic vesicle recycling was examined using FM1-43 (a styryl dye used in the art for studying endocytosis and exocytosis, e.g., in synaptic vesicle uptake and release assays; Molecular Probes, Inc. Eugene, Oreg.). […] In contrast, granule neurons grown in thyroid hormone supplemented medium released only 15-20% of the FM1-43 after six minutes of incubation and the hormone specificity of retention of FM1-43 in the “reserve pool” was identical to that determined for myo5a-dependent, endocytosis of p29 vesicles (D2p29 vesicles) in astrocytes.
Cerebellar granule neurons were examined because thyroid hormone has a profound influence on granule neuron viability during cerebellar maturation (Xiao and Nikodem, 1998, Front. Biosci. 3: A52-57; Rabie et al., 1980, Brain Res. 190:409-414), and because of the effects of the loss of myo5a on synaptic vesicle homeostasis (Bridgman, 1999, J. Cell Biol. 146:1045-1060). […]
Experiments were conducted to determine whether synaptic vesicle endocytosis could be altered by the hormone status of the neuron. […] The dye was then removed and the number, intensity and retention of the FM1-43 in random nerve terminals immediately after washing and after six minutes of autonomous activity were analyzed in paraformaldehyde fixed cells (Ryan, 1999, J. Neurosci.: 19:1317-1323). Fluorescence in single nerve terminals (ROI=7×7 pixels) and in an adjacent segment of the neuronal fiber were measured for 40-45 individual nerve terminals. […] Fluorescence intensity was determined using NIH Image software. The total FM1-43 fluorescence in a nerve terminal represents the sum of the dye-loaded synaptic vesicles in the readily releasable and the reserve pools.
By allowing recurrent activity, the FM1-43 filled synaptic vesicles present in the readily releasable pool will be progressively depleted. […] By measuring the total FM1-43 content in random nerve terminals immediately after loading and at 30 second intervals for six minutes of spontaneous activity, the influence of hormones on the distribution of recycling synaptic vesicles between the readily releasable and reserve pools was estimated.

N[C@@H](Cc1cc(I)c(Oc2ccc(O)c(I)c2)c(I)c1)C(=O)O [T3, 3,5, 3′-triiodothyronine]
retention of recycling synaptic vesicles ([1]; 10 nM hormone, continuous stimulation by 50 mM KCl): no effect | p29^GFP vesicle binding to F-actin, dose-response ([2]; 0-100 nM, below the highest concentration): did not increase | increase in p29^GFP vesicle binding to F-actin ([2]; 100 nM, highest concentration of hormone used): 10-20% | endocytosed FM1-43 released ([3]; after three minutes of spontaneous activity): > 80% | uptake of FM1-43 ([3]; immediately after loading): No differences

Δ myosin ^1830: myosin V tail deletion mutant, residues 1830-1852; vesicle-binding domain (NPSSLALETIQIPASLGLGFIAR)
increase of the t1/2 of FM1-43 retention ([1]; expression from Ad5 construct (MOI=10), T4 supplemented medium): 50%

B1: A myosin V middle: myosin V truncation mutant corresponding to amino acids 504-1307 (protein)
chain: GILDLLDEECKMPKGTDDTWAQKLYNTHLNKCALFEKPRMSNKAFIIKHFADKVEYQCEGFLEKNKDTVFEEQIKVLKSSKFKMLPELFQDDEKAISPTSATSSGRTPLTRVPVKPTKGRPGQTAKEHKKTVGHQFRNSLHLLMETLNATTPHYVRCIKPNDFKFPFTFDEKRAVQQLRACGVLETIRISAAGFPSRWTYQEFFSRYRVLMKQKDVLGDRKQTCKNVLEKLILDKDKYQFGKTKIFFRAGQVAYLEKLRADKLRAACIRIQKTIRGWLLRKRYLCMQRAAITVQRYVRGYQARCYAKFLRRTKAATTIQKYWRMYVVRRRYKIRRAATIVIQSYLRGYLTRNRYRKILREYKAVIIQKRVRGWLARTHYKRTMKAIVYLQCCFRRMMAKRELKKLKIEARSVERYKKLHIGMENKIMQLQRKVDEQNKDYKCLMEKLTNLEGVYNSETEKLRNDVERLQLSEEEAKVATGRVLSLQEEIAKLRKDLEQTRSEKKSIEERADKYKQETDQLVSNLKEENTLLKQEKETLNHRIVEQAKEMTETMERKLVEETKQLELDLNDERLRYQNLLNEFSRLEERYDDLKEEMTLMLNVPKPGHKRTDSTHSSNESEYTFSSEFAETEDIAPRTEEPIEKKVPLDMSLFLKLQKRVTELEQEKQLMQDELDRKEEQVFRSKAKEEERPQIRGAELEYESLKRQELESENKKLKNELNELRKALSEKSAPEVTAPGAPAYRVLMEQLTSVSEELDVRKEEVLILRSQLVSQKEAIQPKDDKNTMTDSTILLEDVQKMKDKGE
competition with native myosin V for T4-dependent binding of p29 to F-actin [2]: did not compete

B2: myosin V tail lacking the last 44 residues (residues 953-1803): myosin V tail truncation mutant, residues 953-1803 (protein)
chain: LEGVYNSETEKLRNDVERLQLSEEEAKVATGRVLSLQEEIAKLRKDLEQTRSEKKSIEERADKYKQETDQLVSNLKEENTLLKQEKETLNHRIVEQAKEMTETMERKLVEETKQLELDLNDERLRYQNLLNEFSRLEERYDDLKEEMTLMLNVPKPGHKRTDSTHSSNESEYTFSSEFAETEDIAPRTEEPIEKKVPLDMSLFLKLQKRVTELEQEKQLMQDELDRKEEQVFRSKAKEEERPQIRGAELEYESLKRQELESENKKLKNELNELRKALSEKSAPEVTAPGAPAYRVLMEQLTSVSEELDVRKEEVLILRSQLVSQKEAIQPKDDKNTMTDSTILLEDVQKMKDKGEIAQAYIGLKETNRLLESQLQSQKRSHENEAEALRGEIQSLKEENNRQQQLLAQNLQLPPEARIEASLQHEITRLTNENLYFEELYADDPKKYQSYRISLYKRMIDLMEQLEKQDKTVRKLKKQLKVFAKKIGELEVGQMENISPGQIIDEPIRPVNIPRKEKDFQGMLEYKREDEQKLVKNLILELKPRGVAVNLIPGLPAYILFMCVRHADYLNDDQKVRSLLTSTINSIKKVLKKRGDDFETVSFWLSNTCRFLHCLKQYSGEEGFMKHNTSRQNEHCLTNFDLAEYRQVLSDLAIQIYQQLVRVLENILQPMIVSGMLEHETIQGVSGVKPTGLRKRTSSIADEGTYTLDSILRQLNSFHSVMCQHGMDPELIKQVVKQMFYIVGAITLNNLLLRKDMCSWSKGMQIRYNVSQLEEWLRDKNLMNSGAKETLEPLIQAAQLLQVKKKTDDDAEAICSMCNALTTAQIVKVLNLYTPVNEFEERVSVSFIRTIQ
competition with native myosin V for T4-dependent binding of p29 to F-actin [2]: did not compete
